Tests used:
[1] = test system: allergic rhinitis; details: dosed intranasally, phase I/II study; cited from earlier work
[2] = test system: allergic rhinitis; details: phase II clinical trial; cited from earlier work
[3] = target: T1, recombinant human GST-Syk (Homo sapiens, UniProt P43405); experiment: Homogeneous Time-Resolved Fluorescence (HTRF) assay for the recombinant human Syk enzyme; format: biochemical; details: ATP 25 μM, 10-dose titration, read-out: rhSYK Activity
T1 construct: purchased Carna Biosciences 08-176
Outline: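 Recombinant GST-hSyk ([…]) was preincubated 10 min at room temperature with inhibitor (0.1% DMSO) in Tris pH 7.5, then reacted for 45 min with 250 nM biotinylated peptide, 5 mM Mg and 25 μM ATP. Phosphorylation was detected by HTRF (Eu-anti-phosphotyrosine/SA-APC). IC50 was derived from a 10-dose titration (10 μM–0.508 nM) with a 4-parameter fit.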

| Compound | IC50 [3] | other results |
| --- | --- | --- |
| Oc1cccc(Nc2ncc(F)c(Nc3cccc(O)c3)n2)c1 [Example R112] | – | PGD2 change [1]: statistically significant decrease in PGD2; clinical safety [1]: safe across a range of indicators; efficacy versus placebo [2]: lack of efficacy versus placebo |
| Cc1cc(Nc2nccc(C(F)(F)F)n2)cc(-n2cnc(C(=O)NC(C)C)c2)c1 [Example 89, N-(1-methylethyl)-1-(3-methyl-5-{[4-(trifluoromethyl)pyrimidin-2-yl]amino}-phenyl)-1H-imidazole-4-carboxamide] | 100 to 1000 nM | – |
| CCOC(=O)[C@H]1CC[C@](O)(c2cn(-c3cc(C)cc(Nc4cc(C(F)(F)F)ccn4)n3)cn2)CC1 [Example 29, Ethyl cis-4-hydroxy-4-[1-(4-methyl-6-{[4-(trifluoromethyl)pyridin-2-yl]amino}pyridin-2-yl)-1H-imidazol-4-yl]cyclohexane-carboxylate] | ≤ 100 nM | – |
| Cc1cc(Nc2nccc(C(F)(F)F)n2)cc(-n2cnc(C(C)(C)C(=O)O)c2)c1 [Example 111, 2-Methyl-2-[1-(3-methyl-5-{[4-(trifluoromethyl)pyrimidin-2-yl]amino}phenyl)-1H-imidazol-4-yl]propanoic acid] | ≤ 100 nM | – |
| OC(c1cn(-c2cccc(Nc3cc(C(F)(F)F)ccn3)n2)cn1)(C1CC1)C1CC1 [Example 83, dicyclopropyl[1-(6-{[4-(trifluoromethyl)-pyridin-2-yl]amino}pyridin-2-yl)-1H-imidazol-4-yl]methanol] | ≤ 100 nM | – |
| Cc1cc(Nc2cc(C(C)(C)C)ccn2)nc(-n2cnc([C@]3(O)CC[C@@H](OC(=O)c4ccccc4)CC3)c2)c1 [Example 52, cis-4-(1-{6-[(4-tert-butylpyridin-2-yl)amino]-4-methylpyridin-2-yl}-1H-imidazol-4-yl)-4-hydroxycyclohexyl benzoate] | ≤ 100 nM | – |
| Cc1cc(Nc2nccc(C3CC3)n2)cc(-n2cnc(C[C@H](O)C(=O)O)c2)c1 [Example 8, (2S)-3-(1-{3-[(4-cyclopropylpyrimidin-2-yl)amino]-5-methylphenyl}-1H-imidazol-4-yl)-2-hydroxypropanoic acid] | ≤ 100 nM | – |
| COC(=O)c1cn(-c2cccc(Nc3cc(C)ccn3)n2)cn1 [Example 102, Methyl 1-{6-[(4-methylpyridin-2-yl)amino]pyridin-2-yl}-1H-imidazole-4-carboxylate] | 100 to 1000 nM | – |
| Cc1ccnc(Nc2cc(C)cc(-n3cnc(C(O)(C4CC4)C4CC4)c3)n2)c1 [Example 86, dicyclopropyl(1-{4-methyl-6-[(4-methylpyridin-2-yl)amino]pyridin-2-yl}-1H-imidazol-4-yl)methanol] | ≤ 100 nM | – |
